Tested on: H460 non-small lung cancer cells
Assay: Growth of H460 tumor xenografts in vivo
Settings: H460 cells injected subcutaneously in mice; compared with vehicle-treated mice; treatments as provided in FIG. 6
Method: Mice were injected subcutaneously with H460 non-small lung cancer cells (ATCC) (5 million cells per mouse).

## C#Cc1cccc(Nc2ncnc3cc(OCCOC)c(OCCOC)cc23)c1 [Tarceva™, N-(3-ethynylphenyl)-6,7-bis(2-methoxyethoxy)-4-quinazolinamine]
  tumor growth: markedly delayed tumor growth

## Apo2L/TRAIL: Apo2L/TRAIL polypeptide consisting of amino acids 114-281 of FIG. 1
  tumor growth: markedly delayed tumor growth
